# Patent US10508077B2 (FORMA Therapeutics, Inc., priority 2015, dated 2019)
# Biological target: T1, Full length human recombinant HDAC8 protein (Homo sapiens, UniProt Q9BY41)
# T1 construct: Full length human recombinant HDAC8 protein was expressed in baculoviral system; made in house
# T1 sequence (Q9BY41 1-377): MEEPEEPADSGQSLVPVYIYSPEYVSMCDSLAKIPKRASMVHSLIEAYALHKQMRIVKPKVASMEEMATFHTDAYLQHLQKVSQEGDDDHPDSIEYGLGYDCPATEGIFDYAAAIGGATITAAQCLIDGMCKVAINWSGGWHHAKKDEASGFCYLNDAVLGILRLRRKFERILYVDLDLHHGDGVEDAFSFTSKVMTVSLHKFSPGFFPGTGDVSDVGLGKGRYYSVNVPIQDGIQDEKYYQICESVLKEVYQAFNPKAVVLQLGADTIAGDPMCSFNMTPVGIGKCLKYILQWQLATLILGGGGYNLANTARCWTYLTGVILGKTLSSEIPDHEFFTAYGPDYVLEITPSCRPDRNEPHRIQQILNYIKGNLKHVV
# Test: In vitro histone deacetylase assay: enzymatic HDAC8 assay, electrophoretic mobility shift
# Type: biochemical
# Settings: substrate RHKK(Ac)-NH2, 1 nM enzyme, compounds listed under IC50 range headings
# Procedure, shortened: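 Readout was microfluidic mobility-shift separation of deacetylated product from fluorescent RHKK(Ac)-NH2 substrate (2 µM), after reaction with 1 nM recombinant full-length human HDAC8 at 25 °C, pH 7.5, stopped with SDS. Twelve 3-fold-spaced concentrations tested; product/sum ratios normalized to controls and fitted with a 4-parameter model for IC50.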
row,SMILES,IC50 [nM]
1,"Cc1ccccc1S(=O)(=O)N1CCN(c2ccccc2/C=C/C(=O)NO)CC1 [Example I-247, (E)-N-hydroxy-3-(2-(4-(o-tolylsulfonyl)piperazin-1-yl)phenyl)acrylamide]",< 1000
2,"O=C(/C=C/c1ccccc1N1CCN(S(=O)(=O)c2ccc(C(F)(F)F)nc2)CC1)NO [Example I-248, (E)-N-hydroxy-3-(2-(4-((6-(trifluoromethyl)pyridin-3-yl)sulfonyl)piperazin-1-yl)phenyl)acrylamide]",< 1000
3,"CC(C)S(=O)(=O)N1CCN(c2ccccc2/C=C/C(=O)NO)CC1 [Example I-249, (E)-N-hydroxy-3-(2-(4-(isopropylsulfonyl)piper-azine-1-yl)phenyl)acrylamide]",< 1000
4,O=C(/C=C/c1ccccc1N1CCN(S(=O)(=O)C2CCCC2)CC1)NO [Example I-250],< 1000
5,"O=C(/C=C/c1ccccc1N1CCN(S(=O)(=O)Cc2ccc(F)cc2)CC1)NO [Example I-251, (E)-3-(2-(4-((4-fluorobenzyl)sulfonyl)pi-perazin-1-yl)phenyl)-N-hydroxyacrylamide]",< 1000
6,"O=C(/C=C/c1ccccc1N1CCN(S(=O)(=O)c2ccc(Cl)s2)CC1)NO [Example I-253, (E)-3-(2-(4-((5-chlorothiophen-2-yl)sulfonyl)piperazin-1-yl)phenyl)-N-hydroxyacrylamide]",< 1000
7,"O=C(/C=C/c1ccccc1N1CCN(S(=O)(=O)c2cccc3cnccc23)CC1)NO [Example I-254, (E)-N-hydroxy-3-(2-(4-(isoquinolin-5-ylsulfonyl)piperazin-1-yl)phenyl)acrylamide]",< 1000
8,"O=C(/C=C/c1ccccc1N1CCN(S(=O)(=O)C2CCOCC2)CC1)NO [Example I-255, (E)-N-hydroxy-3-(2-(4-((tetrahydro-2H-pyran-4-yl)sulfonyl)piperazin-1-yl)phenyl)acrylamide]",< 1000
9,"COc1ccc(S(=O)(=O)N2CCN(c3ccccc3/C=C/C(=O)NO)CC2)cc1OC [Example I-256, (E)-3-(2-(4-((3,4-dimethoxyphenyl)sulfonyl)piperazin-1-yl)phenyl)-N-hydroxyacrylamide]",< 1000
10,"O=C(/C=C/c1ccccc1N1CCN(S(=O)(=O)Cc2cccc(F)c2)CC1)NO [Example I-257, (E)-3-(2-(4-((3-fluorobenzyl)sulfonyl)piperazin-1-yl)phenyl)-N-hydroxyacrylamide]",< 1000
11,"Cn1cnc(S(=O)(=O)N2CCN(c3ccccc3/C=C/C(=O)NO)CC2)c1 [Example I-258, (E)-N-hydroxy-3-(2-(4-((1-methyl-1H-imidazol-4-yl)sulfonyl)piperazin-1-yl)phenyl)acrylamide]",< 1000
12,"O=C(/C=C/c1ccccc1N1CCN(S(=O)(=O)Cc2ccc(Cl)cc2F)CC1)NO [Example I-259, (E)-3-(2-(4-((4-chloro-2-fluorobenzyl)sulfonyl)pi-perazin-1-yl)phenyl)-N-hydroxyacrylamide]",< 1000
13,"O=C(/C=C/c1ccccc1N1CCN(S(=O)(=O)C2CC2)CC1)NO [Example I-260, (E)-3-(2-(4-(cyclopropylsulfonyl)piperazin-1-yl)phenyl)-N-hydroxyacrylamide]",< 1000
14,"CC(C)(C)OC(=O)N1CC(=O)N(c2ccccc2/C=C/C(=O)NO)C1 [Example I-261, tert-butyl (E)-3-(2-(3-(hydroxyamino)-3-oxoprop-1-en-1-yl)phenyl)-4-oxoimidazolidine-1-carboxylate]",< 1000
15,"O=C(/C=C/c1ccccc1NC(=O)c1ccccc1CCc1ccccc1)NO [Example I-267, (E)-N-(2-(3-(hydroxyamino)-3-oxoprop-1-en-1-yl)phenyl)-2-phenethylbenzamide]",< 1000
16,"O=C(/C=C/c1ccccc1NC(=O)c1sc2ccccc2c1Cl)NO [Example I-269, (E)-3-chloro-N-(2-(3-(hydroxyamino)-3-oxoprop-1-en-1-yl)phenyl)benzo[b]thiophene-2-carboxamide]",< 1000
17,"Cc1oc(-c2ccccc2)cc1C(=O)Nc1ccccc1/C=C/C(=O)NO [Example I-271, (E)-N-(2-(3-(hydroxyamino)-3-oxoprop-1-en-1-yl)phenyl)-2-methyl-5-phenylfuran-3-carboxamide]",< 1000

# Second part, the compound after the results:
row,IC50 [nM],SMILES
1,< 1000,"Cc1oc(-c2ccc(Cl)cc2)cc1C(=O)Nc1ccccc1/C=C/C(=O)NO [Example I-272, (E)-5-(4-chlorophenyl)-N-(2-(3-(hydroxyamino)-3-oxoprop-1-en-1-yl)phenyl)-2-methylfuran-3-carboxamide]"
2,< 1000,"O=C(/C=C/c1ccccc1NC(=O)c1ccc(-n2cccc2)nc1)NO [Example I-273, (E)-N-(2-(3-(hydroxyamino)-3-oxoprop-1-en-1-yl)phenyl)-6-(1H-pyrrol-1-yl)nicotinamide]"
3,< 1000,"CCCc1nc(-c2ccccc2)sc1C(=O)Nc1ccccc1/C=C/C(=O)NO [Example I-276, (E)-N-(2-(3-(hydroxyamino)-3-oxoprop-1-en-1-yl)phenyl)-2-phenyl-4-propylthiazole-5-carboxamide]"
4,< 1000,"Cc1nc(-c2ccccc2)sc1C(=O)Nc1ccccc1/C=C/C(=O)NO [Example I-277, (E)-N-(2-(3-(hydroxyamino)-3-oxoprop-1-en-1-yl)phenyl)-4-methyl-2-phenylthiazole-5-carboxamide]"
5,< 1000,"Cc1ccccc1C(C(=O)Nc1ccccc1/C=C/C(=O)NO)C(C)C (stereo not shown) [Example I-278, (E)-N-(2-(3-(hydroxyamino)-3-oxoprop-1-en-1-yl)phenyl)-3-methyl-2-(o-tolyl)butanamide]"
6,< 1000,"O=C(/C=C/c1ccccc1NC(=O)C(c1ccccc1)C1CCCC1)NO (stereo not shown) [Example I-279, (E)-3-(2-(2-cyclopentyl-2-phenylacetamido)phenyl)-N-hydroxyacrylamide]"
7,< 1000,"Cc1ccc(Sc2ncccc2C(=O)Nc2ccccc2/C=C/C(=O)NO)cc1 [Example I-280, (E)-N-(2-(3-(hydroxyamino)-3-oxoprop-1-en-1-yl)phenyl)-2-(p-tolylthio)nicotinamide]"
8,< 1000,"Cc1nc(C(C)(C)C)sc1C(=O)Nc1ccccc1/C=C/C(=O)NO [Example I-283, (E)-2-(tert-butyl)-N-(2-(3-(hydroxyamino)-3-oxoprop-1-en-1-yl)phenyl)-4-methylthiazole-5-carboxamide]"
9,< 1000,"COc1cc(-c2ccccc2)sc1C(=O)Nc1ccccc1/C=C/C(=O)NO [Example I-284, (E)-N-(2-(3-(hydroxyamino)-3-oxoprop-1-en-1-yl)phenyl)-3-methoxy-5-phenylthiophene-2-carboxamide]"
10,< 1000,"Cn1cc(-c2ncc(C(=O)Nc3ccccc3/C=C/C(=O)NO)s2)cn1 [Example I-285, (E)-N-(2-(3-(hydroxyamino)-3-oxoprop-1-en-1-yl)phenyl)-2-(1-methyl-1H-pyrazol-4-yl)thiazole-5-carboxamide]"
11,< 1000,"Cc1cc(C(=O)Nc2ccccc2/C=C/C(=O)NO)ccc1-n1cnnn1 [Example I-286, (E)-N-(2-(3-(hydroxyamino)-3-oxoprop-1-en-1-yl)phenyl)-3-methyl-4-(1H-tetrazol-1-yl)benzamide]"
12,< 1000,"O=C(/C=C/c1ccccc1NC(=O)c1ccc(Cn2nnc3ccccc32)cc1)NO [Example I-287, (E)-4-((1H-benzo[d][1,2,3]triazol-1-yl)methyl)-N-(2-(3-(hydroxyamino)-3-oxoprop-1-en-1-yl)phenyl)benzamide]"
13,< 1000,"Cc1nc(C(C)C(=O)N2CCN(c3ccccc3/C=C/C(=O)NO)CC2)cs1 (stereo not shown) [Example I-289, (E)-N-hydroxy-3-(2-(4-(2-(2-methylthiazol-4-yl)propanoyl)piperazin-1-yl)phenyl)acrylamide]"
14,< 1000,"O=C(/C=C/c1ccccc1N1Cc2cc(Cl)c(Cl)cc2C1)NO [Example I-290, (E)-3-(2-(5,6-dichloroisoindolin-2-yl)phenyl)-N-hydroxyacrylamide]"
15,< 1000,"CC(C(=O)N1CCN(c2ccccc2/C=C/C(=O)NO)CC1)c1ccc(Cl)cc1 (stereo not shown) [Example I-291, (E)-3-(2-(4-(2-(4-chlorophenyl)propanoyl)piperazin-1-yl)phenyl)-N-hydroxyacrylamide]"
16,< 1000,"O=C(/C=C/c1ccccc1N1CCN(C(=O)C2(c3ccc(Cl)cc3)CC2)CC1)NO [Example I-294, (E)-3-(2-(4-(1-(4-chlorophenyl)cyclopropane-1-carbonyl)piperazin-1-yl)phenyl)-N-hydroxyacrylamide]"
17,< 1000,"O=C(/C=C/c1ccccc1N1CCN(C(=O)Cc2cccnc2)CC1)NO [Example I-295, (E)-N-hydroxy-3-(2-(4-(2-(pyridin-3-yl)acetyl)piperazin-1-yl)phenyl)acrylamide]"
18,< 1000,"O=C(/C=C/c1ccccc1N1CCN(C(=O)Cc2ccccn2)CC1)NO [Example I-296, (E)-N-hydroxy-3-(2-(4-(2-(pyridin-2-yl)acetyl)piperazin-1-yl)phenyl)acrylamide]"
19,< 1000,"CC(Cc1ccccc1)C(=O)N1CCN(c2ccccc2/C=C/C(=O)NO)CC1 (stereo not shown) [Example I-297, (E)-N-hydroxy-3-(2-(4-(2-methyl-3-phenylpropanoyl)piperazin-1-yl)phenyl)acrylamide]"
20,< 1000,"O=C(/C=C/c1ccccc1N1CCN(CCc2ccc(Cl)cc2)CC1)NO [Example I-299, (E)-3-(2-(4-(4-chlorophenethyl)pipera-zin-1-yl)phenyl)-N-hydroxyacrylamide]"
